Data from the supplement of paper PMC10307832.

Assays:
Assay in all cases: relative viability (nuclei count vs DMSO), 5 days (fraction); higher = more cells survive
A-427 = test system: A-427
In short: (§1)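 A single step with final 0.05% Triton X-100, 1% formaldehyde and 1 ug/ml Hoechst fixed the cells and stained nuclei 5 days after treatment. Lung cancer cell lines in 1536-well plates had been treated by pin tool the day after seeding with one drug alone or a fixed anchor-drug dose plus five library-drug doses (not always all listed) in √10 steps, and nuclei were counted on 4× images. Relative viability is the ratio of nuclei in treated wells to nuclei in vehicle wells, taken as the median of duplicate plates.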

CAL-12T = test system: CAL-12T
In short: as §1

COR-L 105 = test system: COR-L 105
In short: as §1

EMC-BAC-2 = test system: EMC-BAC-2
In short: as §1

HARA = test system: HARA
In short: as §1

HCC-827 = test system: HCC-827
In short: as §1

HOP-62 = test system: HOP-62
In short: as §1

LCLC-103H = test system: LCLC-103H
In short: as §1

NCI-H1355 = test system: NCI-H1355
In short: as §1

NCI-H1395 = test system: NCI-H1395
In short: as §1

NCI-H1437 = test system: NCI-H1437
In short: as §1

NCI-H1755 = test system: NCI-H1755
In short: as §1

NCI-H1792 = test system: NCI-H1792
In short: as §1

NCI-H1915 = test system: NCI-H1915
In short: as §1

NCI-H1975 = test system: NCI-H1975
In short: as §1

NCI-H2009 = test system: NCI-H2009
In short: as §1

NCI-H2228 = test system: NCI-H2228
In short: as §1

NCI-H23 = test system: NCI-H23
In short: as §1

NCI-H460 = test system: NCI-H460
In short: as §1

NCI-H727 = test system: NCI-H727
In short: as §1

SK-LU-1 = test system: SK-LU-1
In short: as §1

SW 1573 = test system: SW 1573
In short: as §1

NC(=O)Nc1cc(-c2cccc(F)c2)sc1C(=O)N[C@H]1CCCNC1 [AZD7762] + CCNC(=O)c1noc(-c2cc(C(C)C)c(O)cc2O)c1-c1ccc(CN2CCOCC2)cc1 [Luminespib] (partner 0.01 µM) showed a relative viability (A-427; first compound 0.01 µM) of 1.23, a relative viability (A-427; first compound 0.03162 µM) of 0.967 and a relative viability (A-427; first compound 0.1 µM) of 0.815. It also gave a relative viability (A-427; first compound 0.3162 µM) of 0.58, a relative viability (A-427; first compound 1 µM) of 0.322 and a relative viability (CAL-12T; first compound 0.01 µM) of 0.331. For the same compound, the relative viability (CAL-12T; first compound 0.03162 µM) was 0.397, the relative viability (CAL-12T; first compound 0.1 µM) was 0.17 and the relative viability (CAL-12T; first compound 0.3162 µM) was 0.147. It also gave a relative viability (CAL-12T; first compound 1 µM) of 0.223, a relative viability (COR-L 105; first compound 0.01 µM) of 0.743 and a relative viability (COR-L 105; first compound 0.03162 µM) of 0.585. The relative viability (COR-L 105; first compound 0.1 µM) was 0.696, the relative viability (COR-L 105; first compound 0.3162 µM) was 0.648 and the relative viability (COR-L 105; first compound 1 µM) was 0.401. The relative viability (EMC-BAC-2; first compound 0.01 µM) was 1.23, the relative viability (EMC-BAC-2; first compound 0.03162 µM) was 1.16 and the relative viability (EMC-BAC-2; first compound 0.1 µM) was 1.19. The relative viability (EMC-BAC-2; first compound 0.3162 µM) was 1.23, the relative viability (EMC-BAC-2; first compound 1 µM) was 1.04 and the relative viability (HARA; first compound 0.01 µM) was 1.02. The relative viability (HARA; first compound 0.03162 µM) was 0.71, the relative viability (HARA; first compound 0.1 µM) was 0.604 and the relative viability (HARA; first compound 0.3162 µM) was 0.471. For the same compound, the relative viability (HARA; first compound 1 µM) was 0.12, the relative viability (HCC-827; first compound 0.01 µM) was 0.598 and the relative viability (HCC-827; first compound 0.03162 µM) was 0.677. The relative viability (HCC-827; first compound 0.1 µM) was 0.604, the relative viability (HCC-827; first compound 0.3162 µM) was 0.459 and the relative viability (HCC-827; first compound 1 µM) was 0.213. It also gave a relative viability (HOP-62; first compound 0.01 µM) of 0.983, a relative viability (HOP-62; first compound 0.03162 µM) of 0.931 and a relative viability (HOP-62; first compound 0.1 µM) of 0.606. The relative viability (HOP-62; first compound 0.3162 µM) was 0.902, the relative viability (HOP-62; first compound 1 µM) was 0.65 and the relative viability (LCLC-103H; first compound 0.01 µM) was 1.06. The relative viability (LCLC-103H; first compound 0.03162 µM) was 0.932, the relative viability (LCLC-103H; first compound 0.1 µM) was 1.01 and the relative viability (LCLC-103H; first compound 0.3162 µM) was 0.943. The relative viability (LCLC-103H; first compound 1 µM) was 0.953, the relative viability (NCI-H1355; first compound 0.01 µM) was 0.709 and the relative viability (NCI-H1355; first compound 0.03162 µM) was 0.751. The relative viability (NCI-H1355; first compound 0.1 µM) was 0.812, the relative viability (NCI-H1355; first compound 0.3162 µM) was 0.717 and the relative viability (NCI-H1355; first compound 1 µM) was 0.581. The relative viability (NCI-H1395; first compound 0.01 µM) was 0.699, the relative viability (NCI-H1395; first compound 0.03162 µM) was 0.788 and the relative viability (NCI-H1395; first compound 0.1 µM) was 0.888. For the same compound, the relative viability (NCI-H1395; first compound 0.3162 µM) was 0.468, the relative viability (NCI-H1395; first compound 1 µM) was 0.341 and the relative viability (NCI-H1437; first compound 0.01 µM) was 1.17. For the same compound, the relative viability (NCI-H1437; first compound 0.03162 µM) was 1.18, the relative viability (NCI-H1437; first compound 0.1 µM) was 1.2 and the relative viability (NCI-H1437; first compound 0.3162 µM) was 1.13. For the same compound, the relative viability (NCI-H1437; first compound 1 µM) was 0.79, the relative viability (NCI-H1755; first compound 0.01 µM) was 0.498 and the relative viability (NCI-H1755; first compound 0.03162 µM) was 0.344. It also gave a relative viability (NCI-H1755; first compound 0.1 µM) of 0.244, a relative viability (NCI-H1755; first compound 0.3162 µM) of 0.225 and a relative viability (NCI-H1755; first compound 1 µM) of 0.275. For the same compound, the relative viability (NCI-H1792; first compound 0.01 µM) was 0.586, the relative viability (NCI-H1792; first compound 0.03162 µM) was 0.472 and the relative viability (NCI-H1792; first compound 0.1 µM) was 0.392. For the same compound, the relative viability (NCI-H1792; first compound 0.3162 µM) was 0.484, the relative viability (NCI-H1792; first compound 1 µM) was 0.481 and the relative viability (NCI-H1915; first compound 0.01 µM) was 0.828. It also gave a relative viability (NCI-H1915; first compound 0.03162 µM) of 0.829, a relative viability (NCI-H1915; first compound 0.1 µM) of 0.743 and a relative viability (NCI-H1915; first compound 0.3162 µM) of 0.555. It also gave a relative viability (NCI-H1915; first compound 1 µM) of 0.434, a relative viability (NCI-H1975; first compound 0.01 µM) of 0.21 and a relative viability (NCI-H1975; first compound 0.03162 µM) of 0.201. The relative viability (NCI-H1975; first compound 0.1 µM) was 0.0969, the relative viability (NCI-H1975; first compound 0.3162 µM) was 0.173 and the relative viability (NCI-H1975; first compound 1 µM) was 0.127. For the same compound, the relative viability (NCI-H2009; first compound 0.01 µM) was 1.06, the relative viability (NCI-H2009; first compound 0.03162 µM) was 0.975 and the relative viability (NCI-H2009; first compound 0.1 µM) was 1.12. The relative viability (NCI-H2009; first compound 0.3162 µM) was 0.935, the relative viability (NCI-H2009; first compound 1 µM) was 0.663 and the relative viability (NCI-H2228; first compound 0.01 µM) was 0.139. For the same compound, the relative viability (NCI-H2228; first compound 0.03162 µM) was 0.162, the relative viability (NCI-H2228; first compound 0.1 µM) was 0.165 and the relative viability (NCI-H2228; first compound 0.3162 µM) was 0.133. The relative viability (NCI-H2228; first compound 1 µM) was 0.125, the relative viability (NCI-H23; first compound 0.01 µM) was 0.226 and the relative viability (NCI-H23; first compound 0.03162 µM) was 0.189. The relative viability (NCI-H23; first compound 0.1 µM) was 0.194, the relative viability (NCI-H23; first compound 0.3162 µM) was 0.206 and the relative viability (NCI-H23; first compound 1 µM) was 0.194. The relative viability (NCI-H460; first compound 0.01 µM) was 0.0439, the relative viability (NCI-H460; first compound 0.03162 µM) was 0.0339 and the relative viability (NCI-H460; first compound 0.1 µM) was 0.036. For the same compound, the relative viability (NCI-H460; first compound 0.3162 µM) was 0.026, the relative viability (NCI-H460; first compound 1 µM) was 0.0276 and the relative viability (NCI-H727; first compound 0.01 µM) was 0.24. For the same compound, the relative viability (NCI-H727; first compound 0.03162 µM) was 0.499, the relative viability (NCI-H727; first compound 0.1 µM) was 0.291 and the relative viability (NCI-H727; first compound 0.3162 µM) was 0.325. It also gave a relative viability (NCI-H727; first compound 1 µM) of 0.279, a relative viability (SK-LU-1; first compound 0.01 µM) of 0.193 and a relative viability (SK-LU-1; first compound 0.03162 µM) of 0.209. The relative viability (SK-LU-1; first compound 0.1 µM) was 0.192, the relative viability (SK-LU-1; first compound 0.3162 µM) was 0.206 and the relative viability (SK-LU-1; first compound 1 µM) was 0.123. It also gave a relative viability (SW 1573; first compound 0.01 µM) of 0.885, a relative viability (SW 1573; first compound 0.03162 µM) of 0.272 and a relative viability (SW 1573; first compound 0.1 µM) of 0.166. For the same compound, the relative viability (SW 1573; first compound 0.3162 µM) was 0.169 and the relative viability (SW 1573; first compound 1 µM) was 0.161.
